Assay results from patent US9499550B2 (BRISTOL-MYERS SQUIBB COMPANY, priority 2012, dated 2016).
Read-outs that look alike come from different tables or passages of the source.

What was measured:
[1] = tested on: HCV genotype 1a (H77 strain) replicon in HUH-7 cells; assay: HCV replicon luciferase reporter assay, genotype 1a; type: cell-based; conditions: Hepatitis C virus, Huh-7, 72 h, 3 days incubation
Procedure, shortened: (§1)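 Replicon inhibition for both genotypes was measured as Renilla luciferase signal (EnduRen, 7.5 μM final, 2 h) after 3-day, 37° C exposure of replicon-bearing HUH-7 cells in 4% FCS DMEM, 0.5% DMSO. The 1b construct carries S1179I; the 1a H77 construct carries P1496L and S2204I. Twenty-point, 3-fold dilutions were fitted four-parametrically for EC50, and CC50 was taken from multiplexed Cell Titer-Blue.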

[2] = tested on: HCV genotype 1b (Con1) replicon in HUH-7 cells; assay: HCV replicon luciferase reporter assay, genotype 1b; type: cell-based; conditions: Hepatitis C virus, Huh-7, 72 h, 3 days incubation
Procedure, shortened: as §1

[3] = HCV genotype 1a replicon luciferase, read-out: LE_1a (EC50, range)
[4] = HCV genotype 1b replicon luciferase, read-out: LE_1b (EC50, range)
[5] = HCV genotype 1a replicon luciferase assay, range class, read-out: LE_1a (EC50, range)
[6] = HCV genotype 1b replicon luciferase assay, range class, read-out: LE_1b (EC50, range)

Row | SMILES | EC50 [1, 3] | EC50 [2, 4] | EC50 [1, 5] | EC50 [2, 6] | other results
1 | COc1ccc2c(O[C@@H]3C[C@H]4C(=O)N[C@]5(C(=O)NS(=O)(=O)C6CC6)C[C@H]5/C=C\CC[C@@H](C)C[C@@H](C)[C@H](NC(=O)OC(C)(C)C)C(=O)N4C3)nc(-c3ccc(OC(C)C)cn3)cc2c1 [Compound 5201, tert-butyl ((2R,6S,7R,9R,13aS,14aR,16aS,Z)-14a-((cyclopropylsulfonyl)carbamoyl)-2-((3-(5-isopropoxypyridin-2-yl)-6-methoxyisoquinolin-1-yl)oxy)-7,9-dimethyl-5,16-dioxo-1,2,3,5,6,7,8,9,10,11,13a,14,14a,15,16,16a-hexadecahydrocyclopropa[e]pyrrolo[1,2-a][1,4]diazacyclopentadecin-6-yl)carbamate] | < 5.46 nM | < 5.46 nM |  |  | 
2 | COc1cnc(O[C@@H]2C[C@H]3C(=O)N[C@]4(C(=O)NS(=O)(=O)C5(CF)CC5)C[C@H]4/C=C\CC[C@@H](C)C[C@@H](C)[C@H](NC(=O)OC4(C(F)(F)F)CCOC4)C(=O)N3C2)c2ccccc12 (stereo partly drawn) [Compound 1066, 3-(trifluoromethyl)tetrahydrofuran-3-yl((2R,6S,7R,9R,13aS,14aR,16aS,Z)-14a-(((1-(fluoromethyl)cyclopropyl)sulfonyl)carbamoyl)-2-((4-methoxyisoquinolin-1-yl)oxy)-7,9-dimethyl-5,16-dioxo-1,2,3,5,6,7,8,9,10,11,13a,14,14a,15,16,16a-hexadecahydrocyclopropa[e]pyrrolo[1,2-a][1,4]diazacyclopentadecin-6-yl)carbamate] |  |  | < 5.46 nM | < 5.46 nM | 
3 | COc1ccc2c(O[C@@H]3C[C@H]4C(=O)N[C@]5(C(=O)NS(=O)(=O)C6(CF)CC6)C[C@H]5/C=C\CC[C@@H](C)C[C@@H](C)[C@H](NC(=O)OC(C)(C)C(C)(F)F)C(=O)N4C3)nc(C(F)(F)F)cc2c1 [Compound 1171, 3,3-difluoro-2-methylbutan-2-yl((2R,6S,7R,9R,13aS,14aR,16aS,Z)-14a-(((1-(fluoromethyl)cyclopropyl)sulfonyl)carbamoyl)-2-((6-methoxy-3-(trifluoromethyl)isoquinolin-1-yl)oxy)-7,9-dimethyl-5,16-dioxo-1,2,3,5,6,7,8,9,10,11,13a,14,14a,15,16,16a-hexadecahydrocyclopropa[e]pyrrolo[1,2-a][1,4]diazacyclopentadecin-6-yl)carbamate] |  |  | < 5.46 nM | < 5.46 nM | 
4 | COc1cc2c(OC)cnc(O[C@@H]3C[C@H]4C(=O)N[C@]5(C(=O)NS(=O)(=O)C6(CF)CC6)C[C@H]5/C=C\CC[C@@H](C)C[C@@H](C)[C@H](NC(=O)C5(C(F)(F)F)CC5)C(=O)N4C3)c2cc1F [Compound 4119, (2R,6S,7R,9R,13aS,14aR,16aS,Z)-2-(7-fluoro-4,6-dimethoxyisoquinolin-1-yloxy)-N-(1-(fluoromethyl)cyclopropylsulfonyl)-7,9-dimethyl-5,16-dioxo-6-(1-(trifluoromethyl)cyclopropanecarboxamido)-1,2,3,5,6,7,8,9,10,11,13a,14,14a,15,16,16a-hexadecahydrocyclopropa[e]pyrrolo[1,2-a][1,4]diazacyclopentadecine-14a-carboxamide] | < 5.46 nM | < 5.46 nM |  |  | 
5 | COc1cnc(O[C@@H]2C[C@H]3C(=O)N[C@]4(C(=O)NS(=O)(=O)C5(CF)CC5)C[C@H]4/C=C\CC[C@H](C)C[C@@H](C)[C@H](NC(=O)OC4(C(F)(F)F)CCOC4)C(=O)N3C2)c2ccccc12 (stereo partly drawn) [Compound 1065, 3-(trifluoromethyl)tetrahydrofuran-3-yl((2R,6S,7R,9S,13aS,14aR,16aS,Z)-14a-(((1-(fluoromethyl)cyclopropyl)sulfonyl)carbamoyl)-2-((4-methoxyisoquinolin-1-yl)oxy)-7,9-dimethyl-5,16-dioxo-1,2,3,5,6,7,8,9,10,11,13a,14,14a,15,16,16a-hexadecahydrocyclopropa[e]pyrrolo[1,2-a][1,4]diazacyclopentadecin-6-yl)carbamate] |  |  | 4.82 to 103 nM | < 5.46 nM | 
6 | C[C@@H]1CC/C=C\[C@@H]2C[C@@]2(C(=O)NS(=O)(=O)C2(C)CC2)NC(=O)[C@@H]2C[C@@H](Oc3ncc(OC4CC4)c4ccccc34)CN2C(=O)[C@@H](NC(=O)OC(C)(C)C(F)(F)F)[C@H](C)C1 [Compound 4056, 1,1,1-trifluoro-2-methylpropan-2-yl ((2R,6S,7R,9R,13aS,14aR,16aS,Z)-2-((4-cyclopropoxyisoquinolin-1-yl)oxy)-7,9-dimethyl-14a-(((1-methylcyclopropyl)sulfonyl)carbamoyl)-5,16-dioxo-1,2,3,5,6,7,8,9,10,11,13a,14,14a,15,16,16a-hexadecahydrocyclopropa[e]pyrrolo[1,2-a][1,4]diazacyclopentadecin-6-yl)carbamate] | < 5.46 nM | < 5.46 nM |  |  | 
7 | COc1ccc2c(O[C@@H]3C[C@H]4C(=O)N[C@]5(C(=O)NS(=O)(=O)C6CC6)C[C@H]5/C=C\CC[C@@H](C)C[C@@H](C)[C@H](NC(=O)O[C@H](C)C(F)(F)F)C(=O)N4C3)nc(N(C)C)cc2c1 [Compound 3134, (R)-1,1,1-trifluoropropan-2-yl ((2R,6S,7R,9R,13aS,14aR,16aS,Z)-14a-((cyclopropylsulfonyl)carbamoyl)-2-((3-(dimethylamino)-6-methoxyisoquinolin-1-yl)oxy)-7,9-dimethyl-5,16-dioxo-1,2,3,5,6,7,8,9,10,11,13a,14,14a,15,16,16a-hexadecahydrocyclopropa[e]pyrrolo[1,2-a][1,4]diazacyclopentadecin-6-yl)carbamate] |  |  | < 5.46 nM | < 5.46 nM | 
8 | COc1cc(O[C@@H]2C[C@H]3C(=O)N[C@]4(C(=O)NS(=O)(=O)C5(C)CC5)C[C@H]4/C=C\CC[C@@H](C)C[C@@H](C)[C@H](NC(=O)OC(C)(C)C(C)(F)F)C(=O)N3C2)c2cc(F)c(OC)cc2n1 [Compound 1204] |  |  |  |  | EC50 ([1]; GETYPE1A, HCV genotype 1a replicon luciferase, read-out: LE_1a (EC50, range)): 1.01 to 5 nM; EC50 ([2]; GETYPE1B, HCV genotype 1b replicon luciferase, read-out: LE_1b (EC50, range)): 0.51 to 1 nM
9 | COc1cc2nc(C(F)(F)F)c(OC)nc2cc1O[C@@H]1C[C@H]2C(=O)N[C@]3(C(=O)NS(=O)(=O)C4(C)CC4)C[C@H]3/C=C\CC[C@H](C)C[C@@H](C)[C@H](NC(=O)OC(C)(C)C)C(=O)N2C1 [Compound 4352, tert-butyl ((2R,6S,7R,9S,13aS,14aR,16aS,Z)-2-((3,7-dimethoxy-2-(trifluoromethyl)quinoxalin-6-yl)oxy)-7,9-dimethyl-14a-(((1-methylcyclopropyl)sulfonyl)carbamoyl)-5,16-dioxo-1,2,3,5,6,7,8,9,10,11,13a,14,14a,15,16,16a-hexadecahydrocyclopropa[e]pyrrolo[1,2-a][1,4]diazacyclopentadecin-6-yl)carbamate] | 35 to 620 nM | 35 to 620 nM |  |  | 
10 | CC[C@@H]1C[C@@H](C)CC/C=C\[C@@H]2C[C@@]2(C(=O)NS(=O)(=O)C2(C)CC2)NC(=O)[C@@H]2C[C@@H](Oc3nc(OC)cc4ccccc34)CN2C(=O)[C@H]1NC(=O)OC(C)(C)C [Compound 6004, tert-butyl ((2R,6S,7R,9S,13aS,14aR,16aS,Z)-7-ethyl-2-((3-methoxyisoquinolin-1-yl)oxy)-9-methyl-14a-(((1-methylcyclopropyl)sulfonyl)carbamoyl)-5,16-dioxo-1,2,3,5,6,7,8,9,10,11,13a,14,14a,15,16,16a-hexadecahydrocyclopropa[e]pyrrolo[1,2-a][1,4]diazacyclopentadecin-6-yl)carbamate] | 4.82 to 103 nM | < 5.46 nM |  |  | 
11 | CCCOc1cnc(O[C@@H]2C[C@H]3C(=O)N[C@]4(C(=O)NS(=O)(=O)C5CC5)C[C@H]4/C=C\CC[C@H](C)C[C@@H](C)[C@H](NC(=O)OC(C)(C)C(F)(F)F)C(=O)N3C2)c2ccccc12 [Compound 5090, 1,1,1-trifluoro-2-methylpropan-2-yl((2R,6S,7R,9S,13aS,14aR,16aS,Z)-14a-((cyclopropylsulfonyl)carbamoyl)-7,9-dimethyl-5,16-dioxo-2-((4-propoxyisoquinolin-1-yl)oxy)-1,2,3,5,6,7,8,9,10,11,13a,14,14a,15,16,16a-hexadecahydrocyclopropa[e]pyrrolo[1,2-a][1,4]diazacyclopentadecin-6-yl)carbamate] | > 87.4 nM | 4.82 to 103 nM |  |  | EC50 ([1]; HCV genotype 1a replicon luciferase, read-out: LE_1a (EC50)): 522 nM; EC50 ([2]; HCV genotype 1b replicon luciferase, read-out: LE_1b (EC50)): 87.4 nM
12 | C[C@@H]1CC/C=C\[C@@H]2C[C@@]2(C(=O)NS(=O)(=O)C2(CF)CC2)NC(=O)[C@@H]2C[C@@H](Oc3nc4c(c5ccccc35)CCCO4)CN2C(=O)[C@@H](NC(=O)OC(C)(C)C(C)(F)F)[C@H](C)C1 [Compound 6052, 3,3-difluoro-2-methylbutan-2-yl((2R,6S,7R,9R,13aS,14aR,16aS,Z)-2-((2,3-dihydro-1H-pyrano[2,3-c]isoquinolin-6-yl)oxy)-14a-(((1-(fluoromethyl)cyclopropyl)sulfonyl)carbamoyl)-7,9-dimethyl-5,16-dioxo-1,2,3,5,6,7,8,9,10,11,13a,14,14a,15,16,16a-hexadecahydrocyclopropa[e]pyrrolo[1,2-a][1,4]diazacyclopentadecin-6-yl)carbamate] | 5.01 to 35 nM | 0.1 to 0.5 nM |  |  | 
